Values quoted from earlier work in EP4729553A1, “BLOCK POLYMER, AND COLORING MATERIAL DISPERSION AND INK COMPOSITION USING SAME” (Mikuni Shikiso Kabushiki Kaisha, priority 2023, dated 2024).

Conditions: monomer, trade product data

Substance: ethoxylated o-phenylphenol acrylate [A-LEN10]
- LogP: 3.98
